According to ChEMBL document CHEMBL1201862, “PubChem BioAssay data set” (2004):
The source made the active and inactive calls. Rule as the data show it, for most assays here: actives have a measured EC50 and inactives only a lower limit.

Key:
[1] = target: T1, Short transient receptor potential channel 4 (Mus musculus, UniProt Q9QUQ5); experiment: block of DAMGO-driven TRPC4 calcium entry – cell-based, HEK293 TRPC4/mu-opioid, Fluo-4 calcium, dose response (AID 434942); format: functional;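 also: potency of inhibitors blocking the TRPC4 calcium response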
T1 sequence (Q9QUQ5 whole entry): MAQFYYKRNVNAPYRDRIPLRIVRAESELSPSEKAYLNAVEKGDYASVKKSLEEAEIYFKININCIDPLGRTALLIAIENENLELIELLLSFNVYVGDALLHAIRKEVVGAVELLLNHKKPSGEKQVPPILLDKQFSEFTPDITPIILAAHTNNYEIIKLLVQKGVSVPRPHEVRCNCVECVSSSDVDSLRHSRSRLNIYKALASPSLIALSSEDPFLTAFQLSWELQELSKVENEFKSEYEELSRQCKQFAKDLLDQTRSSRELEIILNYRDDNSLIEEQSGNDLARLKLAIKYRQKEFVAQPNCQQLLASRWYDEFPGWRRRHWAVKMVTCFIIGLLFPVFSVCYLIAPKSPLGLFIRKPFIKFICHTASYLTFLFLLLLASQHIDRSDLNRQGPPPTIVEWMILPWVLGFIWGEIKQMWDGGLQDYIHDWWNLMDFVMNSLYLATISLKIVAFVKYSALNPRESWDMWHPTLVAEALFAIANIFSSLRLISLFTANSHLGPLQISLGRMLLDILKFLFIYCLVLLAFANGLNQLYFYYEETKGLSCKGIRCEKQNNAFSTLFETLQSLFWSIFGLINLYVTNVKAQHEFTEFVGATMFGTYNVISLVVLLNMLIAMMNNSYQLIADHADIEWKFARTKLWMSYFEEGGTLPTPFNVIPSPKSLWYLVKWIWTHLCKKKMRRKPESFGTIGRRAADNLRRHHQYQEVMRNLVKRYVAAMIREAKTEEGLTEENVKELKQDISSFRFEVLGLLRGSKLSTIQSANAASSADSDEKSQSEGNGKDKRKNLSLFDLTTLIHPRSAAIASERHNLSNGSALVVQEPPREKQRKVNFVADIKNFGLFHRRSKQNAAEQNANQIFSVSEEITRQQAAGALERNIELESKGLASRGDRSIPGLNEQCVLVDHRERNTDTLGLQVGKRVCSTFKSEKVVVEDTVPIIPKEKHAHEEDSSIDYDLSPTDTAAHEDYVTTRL

Nonstructural protein 1 = Nonstructural protein 1 (Influenza A virus, UniProt Q194T2); format: functional, Influenza A virus (A/California/07/2009(H1N1))
Nonstructural protein 1, sequence (Q194T2 whole entry): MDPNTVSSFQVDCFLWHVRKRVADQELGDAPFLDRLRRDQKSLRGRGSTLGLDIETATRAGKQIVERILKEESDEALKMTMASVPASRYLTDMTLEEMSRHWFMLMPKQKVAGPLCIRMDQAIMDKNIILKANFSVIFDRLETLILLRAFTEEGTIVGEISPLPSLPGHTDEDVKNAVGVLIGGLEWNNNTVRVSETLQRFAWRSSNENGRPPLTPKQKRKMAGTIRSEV

[2] = Luminescence Cell-Based Dose Confirmation HTS to Identify Inhibitors of Platelet Dense Granule Release. [Related pubchem assays: 1663 (Primary HTS), 1678 (Summary of Project)]; format: functional
BJ [3] = experiment: BJ-TERT fibroblast viability loss – cell-based, RAS-independent, luminescence, dose response (AID 1933); format: functional; details: Homo sapiens
BJ [4] = experiment: BJ-TERT-LT-ST fibroblast viability loss – cell-based, RAS-independent, luminescence, dose response (AID 1935); format: functional; details: Homo sapiens;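 also: BJ fibroblasts immortalized with TERT plus LT and ST oncogenes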
[5] = target: Luciferin 4-monooxygenase (Photinus pyralis, UniProt P08659); experiment: inhibition of purified Photinus pyralis luciferase – biochemical, luminescence, dose response (AID 1891)
Luciferin 4-monooxygenase, sequence (P08659 whole entry): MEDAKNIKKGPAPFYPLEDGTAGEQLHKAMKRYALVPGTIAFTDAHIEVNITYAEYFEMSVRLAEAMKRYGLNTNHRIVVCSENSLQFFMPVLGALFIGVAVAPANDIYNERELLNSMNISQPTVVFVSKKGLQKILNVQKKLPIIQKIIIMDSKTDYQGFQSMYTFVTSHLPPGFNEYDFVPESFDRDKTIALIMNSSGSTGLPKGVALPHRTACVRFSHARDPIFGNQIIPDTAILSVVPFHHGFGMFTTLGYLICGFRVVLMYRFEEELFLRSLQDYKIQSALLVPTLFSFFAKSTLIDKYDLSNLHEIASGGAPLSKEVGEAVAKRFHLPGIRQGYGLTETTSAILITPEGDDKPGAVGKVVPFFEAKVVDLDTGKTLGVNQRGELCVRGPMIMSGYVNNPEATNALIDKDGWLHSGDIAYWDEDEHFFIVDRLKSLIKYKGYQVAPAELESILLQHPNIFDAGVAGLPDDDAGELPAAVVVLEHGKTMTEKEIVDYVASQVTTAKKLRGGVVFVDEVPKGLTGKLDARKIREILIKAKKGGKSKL

[6] = DRD fibroblast viability loss – cell-based, non-viral oncogenic, luminescence, dose response (AID 1934); format: functional; details: Homo sapiens
BJ [7] = experiment: cells; format: functional, cell-based; details: Homo sapiens
[8] = A cytotoxicity screen of small molecule inhibitors of the PhoP region in Salmonella typhi identified in the primary screen. [Related pubchem assays: 1850, 1864, 1985 ]; format: functional
[9] = target: T2, Replicative DNA helicase DnaB (Mycobacterium tuberculosis, UniProt P9WMR3); experiment: DnaB intein splicing inhibitors, dose response, biochemical, cell-free fluorescence (AID 449749); format: functional
T2 sequence (P9WMR3 whole entry): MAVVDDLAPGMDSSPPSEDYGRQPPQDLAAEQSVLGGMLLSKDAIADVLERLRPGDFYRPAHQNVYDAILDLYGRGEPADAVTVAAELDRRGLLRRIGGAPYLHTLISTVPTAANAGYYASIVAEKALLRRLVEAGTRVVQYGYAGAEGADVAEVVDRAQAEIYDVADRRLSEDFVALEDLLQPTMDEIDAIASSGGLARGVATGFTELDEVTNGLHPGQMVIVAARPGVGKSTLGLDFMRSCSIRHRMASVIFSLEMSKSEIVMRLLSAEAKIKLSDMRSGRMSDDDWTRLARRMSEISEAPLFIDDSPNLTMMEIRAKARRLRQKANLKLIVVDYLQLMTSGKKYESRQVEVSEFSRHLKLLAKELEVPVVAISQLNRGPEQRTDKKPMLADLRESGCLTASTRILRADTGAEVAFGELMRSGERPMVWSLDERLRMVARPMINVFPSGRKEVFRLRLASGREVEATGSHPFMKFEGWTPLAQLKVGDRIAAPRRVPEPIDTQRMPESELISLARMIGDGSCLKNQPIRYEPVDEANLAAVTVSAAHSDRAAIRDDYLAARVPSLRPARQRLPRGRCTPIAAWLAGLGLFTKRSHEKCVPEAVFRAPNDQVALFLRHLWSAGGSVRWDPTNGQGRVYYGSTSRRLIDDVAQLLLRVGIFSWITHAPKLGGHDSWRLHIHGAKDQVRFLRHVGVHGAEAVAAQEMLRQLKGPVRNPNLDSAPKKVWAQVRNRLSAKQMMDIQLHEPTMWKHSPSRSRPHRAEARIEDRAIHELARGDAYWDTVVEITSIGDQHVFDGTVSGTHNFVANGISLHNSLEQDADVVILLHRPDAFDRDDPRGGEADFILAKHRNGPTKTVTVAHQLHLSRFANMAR

Protein RecA = target: T3, Protein RecA (Mycobacterium tuberculosis, UniProt P9WHJ3); experiment: Fluorescence Cell-Free Homogeneous Dose Retest to Identify Inhibitors of RecA-Intein Splicing Activity. [Related pubchem assays (depositor defined):AID2097, AID2223, AID489010, AID492950]; format: functional
T3 sequence (P9WHJ3 whole entry): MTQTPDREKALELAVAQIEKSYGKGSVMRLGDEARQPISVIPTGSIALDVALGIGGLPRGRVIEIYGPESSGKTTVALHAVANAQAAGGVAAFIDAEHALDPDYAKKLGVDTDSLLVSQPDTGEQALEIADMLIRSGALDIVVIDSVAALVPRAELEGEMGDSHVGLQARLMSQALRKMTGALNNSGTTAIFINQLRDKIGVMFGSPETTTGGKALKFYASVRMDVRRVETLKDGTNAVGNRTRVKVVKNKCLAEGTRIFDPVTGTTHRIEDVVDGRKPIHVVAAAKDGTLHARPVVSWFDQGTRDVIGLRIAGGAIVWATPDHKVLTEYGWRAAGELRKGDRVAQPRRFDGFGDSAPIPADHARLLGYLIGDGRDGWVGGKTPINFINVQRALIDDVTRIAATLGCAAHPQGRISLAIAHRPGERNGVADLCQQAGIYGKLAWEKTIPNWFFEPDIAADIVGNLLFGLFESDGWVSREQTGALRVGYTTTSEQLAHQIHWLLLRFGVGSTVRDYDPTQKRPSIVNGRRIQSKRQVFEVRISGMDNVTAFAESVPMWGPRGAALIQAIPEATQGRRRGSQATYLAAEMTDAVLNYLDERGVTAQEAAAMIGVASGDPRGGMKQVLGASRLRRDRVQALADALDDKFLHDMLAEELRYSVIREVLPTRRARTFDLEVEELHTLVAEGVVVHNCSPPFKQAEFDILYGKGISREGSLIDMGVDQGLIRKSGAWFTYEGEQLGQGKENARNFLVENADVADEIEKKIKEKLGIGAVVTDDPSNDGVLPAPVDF

[10] = target: Glyceraldehyde-3-phosphate dehydrogenase (Homo sapiens, UniProt P04406)
Glyceraldehyde-3-phosphate dehydrogenase, sequence (P04406 whole entry): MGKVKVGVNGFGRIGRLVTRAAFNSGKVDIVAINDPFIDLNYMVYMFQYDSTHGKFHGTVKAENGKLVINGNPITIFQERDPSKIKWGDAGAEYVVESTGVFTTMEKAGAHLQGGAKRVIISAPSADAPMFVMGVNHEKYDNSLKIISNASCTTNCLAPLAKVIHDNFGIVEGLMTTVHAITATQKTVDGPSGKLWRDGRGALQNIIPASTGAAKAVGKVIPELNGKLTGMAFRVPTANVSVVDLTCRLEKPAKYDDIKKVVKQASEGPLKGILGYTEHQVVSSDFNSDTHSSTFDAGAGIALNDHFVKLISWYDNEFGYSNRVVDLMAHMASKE

[11] = alpha-synuclein stem-loop luciferase translation blockers – H4 neuroglioma cells, luminescence, confirmation (AID 1988); format: functional, cell-based
[12] = luciferase reporter signal suppression in cells – H4 neuroglioma cells, luminescence, dose response (AID 1990); format: functional, cell-based
[13] = Luminescence Cell-Based Dose Response HTS to Identify Inhibitors of 5'UTR Stem-Loop Driven Prion Protein mRNA Translation in H4 Neuroglioblastoma Cells. [Related pubchem assays: 1827 (Project Summary), 1813 (Primary HTS)]; format: functional
Leucine aminopeptidase = target: T4, Leucine aminopeptidase (Plasmodium falciparum 3D7, UniProt Q8IL11); experiment: P. falciparum M17LAP inhibitors, primary screen, biochemical, fluorogenic H-Leu-NHMec substrate, 1536-well (AID 1619); format: functional
T4 sequence (Q8IL11 whole entry): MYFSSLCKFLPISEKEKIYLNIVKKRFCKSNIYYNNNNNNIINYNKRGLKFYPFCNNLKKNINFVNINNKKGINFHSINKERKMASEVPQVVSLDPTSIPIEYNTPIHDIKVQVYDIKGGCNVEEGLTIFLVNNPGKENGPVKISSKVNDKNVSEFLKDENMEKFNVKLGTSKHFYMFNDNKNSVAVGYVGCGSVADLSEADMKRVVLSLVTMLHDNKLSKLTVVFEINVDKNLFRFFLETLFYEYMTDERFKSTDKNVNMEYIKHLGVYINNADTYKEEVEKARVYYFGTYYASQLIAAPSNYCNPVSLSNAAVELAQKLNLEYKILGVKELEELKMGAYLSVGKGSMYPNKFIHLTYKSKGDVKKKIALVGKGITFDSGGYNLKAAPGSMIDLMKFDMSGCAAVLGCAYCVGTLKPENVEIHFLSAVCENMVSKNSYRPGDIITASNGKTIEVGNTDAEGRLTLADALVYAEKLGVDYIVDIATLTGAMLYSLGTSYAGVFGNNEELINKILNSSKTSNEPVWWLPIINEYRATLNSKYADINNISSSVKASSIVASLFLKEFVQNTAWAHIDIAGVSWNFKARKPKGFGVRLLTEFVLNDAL

CN1CCN(Cc2c[nH]nc2-c2ccc(F)cc2F)[C@@H](c2ccccc2)C1
EC50 [1]: 4.22 µM (active)

CCC1CCCCN1c1nc(-c2cccc(OC)c2O)nc2ccccc12 (stereo not drawn)
IC50 (Nonstructural protein 1): > 100 µM (active)

OCCNc1nc2ccccc2n1CCN1CCCCC1
EC50 [1]: 3.35 µM (active)

Cc1ccsc1C(=O)Nc1ccc(OCc2ccccc2)cc1
EC50 [2]: 5.83 µM (active) | EC50 (BJ [3]): > 150 µM (not active) | EC50 (BJ [4]): > 150 µM (not active) | EC50 [5]: 1.7 µM (active) | EC50 [6]: > 150 µM (inconclusive) | EC50 (BJ [7]): 34.4 µM (active)

O=C1C(=C(c2ccccc2)c2ccccc2)Nc2ccccc21
IC50 (Nonstructural protein 1): 30.3 µM (active)

Cc1ccc(SCc2n[nH]c3c2C(c2cccnc2)C(C#N)=C(N)O3)cc1 (stereo not drawn)
EC50 [8]: > 50 µM (active)

COCCN1C(=O)/C(=C/c2ccc(N3CCCC3)cc2C)SC1=S
EC50 (BJ [3]): 27.7 µM (active) | EC50 (BJ [4]): > 150 µM (not active) | EC50 [6]: > 150 µM (not active) | EC50 (BJ [7]): > 150 µM (inconclusive)

CC1CC1C(=O)Nc1nc2ccc(S(C)(=O)=O)cc2s1 (stereo not drawn)
EC50 [8]: > 50 µM (active)

O=C(CCl)N(Cc1cccc([N+](=O)[O-])c1)c1cccc(Cl)c1
EC50 (BJ [3]): 0.25 µM (active) | EC50 (BJ [4]): 4.87 µM (inconclusive) | AC50 [9]: 5.28 µM (active) | EC50 (Protein RecA): 0.512 µM (active) | EC50 [6]: 1.22 µM (active) | EC50 (BJ [7]): 1.41 µM (inconclusive)

COc1cccc(N2C(=O)C(Cl)=C(N3CCN(C)CC3)C2=O)c1
IC50 [10]: > 50 µM (inconclusive)

COC(=O)c1ccc(Nc2cc(C)nc3ccccc23)cc1
EC50 [11]: 7.97 µM (active) | EC50 [12]: 11.6 µM (active) | EC50 [1]: 3.76 µM (active) | EC50 [13]: 16.4 µM (active)

Cc1noc(C)c1S(=O)(=O)N1CCC(Cc2ccccc2)CC1
EC50 [8]: > 50 µM (active)

O=C1C(Cl)=C(N2CCOCC2)C(=O)N1c1ccc(C(F)(F)F)cc1
IC50 [10]: > 50 µM (inconclusive)

Cc1nc(-c2ccc(C(=O)Nc3cccc(F)c3)cc2)cs1
EC50 (BJ [3]): 38.1 µM (active) | EC50 (BJ [4]): > 150 µM (inconclusive) | EC50 [6]: 23.8 µM (active) | EC50 (BJ [7]): 24.3 µM (active)

Cc1cccc(Nc2nnc(SCC(=O)Nc3ccc(C(=O)O)cc3)s2)c1
IC50 (Leucine aminopeptidase): 24.3 µM (active)

Cc1ccc(N2C(=O)C(Cl)=C(N3CCN(C)CC3)C2=O)cc1
IC50 [10]: > 50 µM (inconclusive)

Fc1cccc(Cl)c1CSc1ccc(-c2ccco2)nn1
EC50 [8]: > 50 µM (active)

CCCCCN1C(=O)/C(=C/c2c(N3CCc4ccccc4C3)nc3ccccn3c2=O)SC1=S
EC50 [8]: > 50 µM (active)

c1csc(CNc2nc(-c3cccs3)nc3ccccc23)c1
EC50 [1]: 4.73 µM (active)

CC(=O)c1c(C)oc2ccc(NS(=O)(=O)c3ccc(O)c(C(=O)O)c3)cc12
IC50 (Leucine aminopeptidase): 9.78 µM (active)

COc1cc(C(=O)N/N=C/c2sccc2C)cc(OC)c1OC
EC50 [11]: 0.114 µM (active) | EC50 (BJ [3]): 0.636 µM (inconclusive) | EC50 (BJ [4]): 0.421 µM (active) | EC50 [12]: 0.292 µM (active) | EC50 [13]: 0.219 µM (active) | EC50 [6]: 0.65 µM (inconclusive) | EC50 (BJ [7]): 2.57 µM (inconclusive)

O=[N+]([O-])c1cccc(/C=N/c2cc3c(cc2Br)OCCO3)c1
IC50 (Nonstructural protein 1): > 100 µM (active)

CC[C@H](C)[C@H](NC(=O)[C@H](Cc1ccc(O)cc1)NC(=O)[C@@H](N)C(C)C)C(=O)N[C@@H](Cc1cnc[nH]1)C(=O)N1CCC[C@H]1C(=O)N[C@@H](Cc1ccccc1)C(=O)O [ANGIOTENSIN IV]
IC50 (Leucine aminopeptidase): 1.53 µM (active)
